pEC50, pIC50: −log10 of the molar value. The source made the active and inactive calls. The rule behind the calls is not given here.
Assays:
Poliovirus 1 [1] = experiment: Antiviral activity against Human poliovirus 1 Sabin infected in african green monkey Vero76 cells assessed as inhibition of virus-induced cytopathogenicity by plaque reduction assay; format: functional, organism-based; details: Enterovirus C, Vero 76
[2] = Cytotoxicity against african green monkey Vero 76 cells assessed as cell viability after 48 to 96 hrs by crystal violet staining method; format: cell-based; details: chlorocebus sabaeus
[3] = molecular target: Peroxisome proliferator-activated receptor gamma (Homo sapiens, UniProt P37231); experiment: (§1) Agonist activity at human PPAR gamma in human HepG2 cells after 20 hrs by luciferase reporter assay; format: cell-based
Human orthopneumovirus = experiment: Antiviral activity against human RSV infected in african green monkey Vero76 cells assessed as inhibition of virus-induced cytopathogenicity after 5 days by plaque reduction assay; format: functional, organism-based; details: human respiratory syncytial virus, Vero 76, 120 h
[4] = Cytotoxicity against BHK cells assessed as cell viability after 48 to 96 hrs by MTT assay; format: cell-based, Mesocricetus auratus; details: hamster
[5] = tested on: Bovine viral diarrhea virus 1; experiment: Antiviral activity against BVDV infected in MDBK cells assessed as inhibition of virus-induced cytopathogenicity after 3 to 4 days by MTT assay; format: functional, organism-based; details: Bovine viral diarrhea virus isolates and strains
[6] = Cytotoxicity against human MT4 cells assessed as cell viability after 96 hrs by MTT assay; format: cell-based
[7] = molecular target: Peroxisome proliferator-activated receptor alpha (Homo sapiens, UniProt Q07869); experiment: (§2) Agonist activity at human PPAR alpha in human HepG2 cells after 20 hrs by luciferase reporter assay; format: cell-based
Yellow fever virus = experiment: Antiviral activity against YFV infected in BHK-21 cells assessed as inhibition of virus-induced cytopathogenicity after 3 to 4 days by MTT assay; format: functional, organism-based
Coxsackievirus B5 = experiment: Antiviral activity against human CVB5 infected in african green monkey Vero76 cells assessed as inhibition of virus-induced cytopathogenicity after 3 days by plaque reduction assay; format: functional, organism-based; details: Enterovirus B, Vero 76, 72 h
[8] = tested on: Vesicular stomatitis virus; experiment: Antiviral activity against VSV; format: functional, organism-based
[9] = Cytotoxicity against MDBK cells assessed as cell viability after 48 to 96 hrs by MTT assay; format: cell-based, Bos taurus; details: cattle
Vaccinia virus = experiment: Antiviral activity against Vaccinia virus; format: functional, organism-based; details: Orthopoxvirus vaccinia
[10] = tested on: Human immunodeficiency virus 1; experiment: Antiviral activity against HIV-1 infected in MT4 cells assessed as inhibition of virus-induced cytopathogenicity after 4 days by MTT assay; format: functional, organism-based; details: Human immunodeficiency virus 1, MT4, 96 h
[11] = molecular target: T1, Peroxisome proliferator-activated receptor gamma (Homo sapiens) (UniProt P37231); experiment: as §1; format: cell-based
T1 sequence (whole entry): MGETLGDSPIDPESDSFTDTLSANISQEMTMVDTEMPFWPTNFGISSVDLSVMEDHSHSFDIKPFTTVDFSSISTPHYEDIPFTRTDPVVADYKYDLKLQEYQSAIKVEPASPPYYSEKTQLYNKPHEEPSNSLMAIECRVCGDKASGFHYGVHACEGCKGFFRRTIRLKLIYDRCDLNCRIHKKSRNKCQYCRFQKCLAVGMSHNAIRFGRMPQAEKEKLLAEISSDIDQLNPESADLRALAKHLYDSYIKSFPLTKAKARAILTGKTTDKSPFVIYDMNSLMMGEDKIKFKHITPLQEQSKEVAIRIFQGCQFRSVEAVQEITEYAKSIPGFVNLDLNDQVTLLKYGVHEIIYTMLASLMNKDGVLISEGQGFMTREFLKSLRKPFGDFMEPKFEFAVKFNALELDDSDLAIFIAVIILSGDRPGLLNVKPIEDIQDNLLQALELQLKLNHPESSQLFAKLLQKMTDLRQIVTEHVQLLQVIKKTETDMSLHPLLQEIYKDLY

[12] = molecular target: T2, Peroxisome proliferator-activated receptor alpha (Homo sapiens) (UniProt Q07869); experiment: as §2; format: cell-based
T2 sequence (whole entry): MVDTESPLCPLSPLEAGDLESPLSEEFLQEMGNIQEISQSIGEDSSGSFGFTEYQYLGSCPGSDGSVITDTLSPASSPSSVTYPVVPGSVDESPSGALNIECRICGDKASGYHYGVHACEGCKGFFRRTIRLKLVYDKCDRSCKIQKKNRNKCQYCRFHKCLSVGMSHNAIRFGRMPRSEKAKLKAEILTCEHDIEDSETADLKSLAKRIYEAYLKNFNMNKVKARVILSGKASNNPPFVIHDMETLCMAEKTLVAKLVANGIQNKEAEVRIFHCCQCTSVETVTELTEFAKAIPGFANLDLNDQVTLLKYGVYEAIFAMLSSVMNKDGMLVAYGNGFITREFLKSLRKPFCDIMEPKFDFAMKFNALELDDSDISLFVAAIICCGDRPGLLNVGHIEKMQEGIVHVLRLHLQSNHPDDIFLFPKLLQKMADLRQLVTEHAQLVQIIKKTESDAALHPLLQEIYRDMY

[13] = Selectivity index, ratio of CC50 for MDBK cells to EC50 for BVDV; set-up: species or system Bovine viral diarrhea virus 1
[14] = Selectivity index, ratio of CC50 for african green monkey Vero76 cells to EC50 for human RSV; set-up: species or system human respiratory syncytial virus, Vero 76
[15] = tested on: Respiratory syncytial virus; experiment: Antiviral activity against RSV; format: functional, organism-based; details: human respiratory syncytial virus
Influenza B virus = experiment: Antiviral activity against Influenza B virus; format: functional
[16] = Selectivity index, ratio of CC50 for african green monkey Vero76 cells to EC50 for human Sb-1; set-up: species or system Human poliovirus 1 strain Sabin, Vero 76
[17] = tested on: Mammalian orthoreovirus 1; experiment: Antiviral activity against Reo-1 virus infected in BHK-21 cells assessed as inhibition of virus-induced cytopathogenicity after 3 to 4 days by MTT assay; format: functional, cell-based; details: Mammalian orthoreovirus 1, BHK-21
Human alphaherpesvirus 1 = experiment: Antiviral activity against HSV1; format: functional, organism-based
[18] = Selectivity index, ratio of CC50 for african green monkey Vero76 cells to EC50 for human CVB5; set-up: species or system Coxsackievirus B5, Vero 76
Poliovirus 1 [19] = experiment: Antiviral activity against Human poliovirus 1 Sabin; format: functional, organism-based; details: Enterovirus C
Semliki Forest virus = experiment: Antiviral activity against Semliki forest virus assessed as inhibition of virus growth at 170 uM; format: functional
[20] = Selectivity index, ratio of CC50 for BHK-21 cells to EC50 for DENV-2
dengue virus type 2 = experiment: Antiviral activity against DENV-2 infected in BHK-21 cells assessed as inhibition of virus-induced cytopathogenicity after 3 to 4 days by MTT assay; format: functional, organism-based
[21] = Selectivity index, ratio of CC50 for BHK-21 cells to EC50 for YFV; set-up: species or system Yellow fever virus
West Nile virus = experiment: Antiviral activity against WNV infected in BHK-21 cells assessed as inhibition of virus-induced cytopathogenicity after 3 to 4 days by MTT assay; format: functional, organism-based
[22] = Inhibition of HCV helicase; set-up: species or system Hepacivirus hominis
Poliovirus 2 = experiment: Antiviral activity against Human poliovirus 2; format: functional; details: Enterovirus C
[23] = Selectivity index, ratio of CC50 for human MT4 cells to EC50 for HIV-1; format: toxicity, cell-based; details: human immunodeficiency virus 1, MT4 cells; read-out: Ratio CC50/EC50
Coxsackievirus B2 = experiment: Antiviral activity against Human coxsackievirus B2; format: functional, organism-based; details: Enterovirus B
[24] = Selectivity index, ratio of CC50 for BHK-21 cells to EC50 for WNV; set-up: species or system West Nile virus

SMILES	pEC50 (Poliovirus 1 [1])	CC50 [2] [µM]	pEC50 (Human orthopneumovirus)	CC50 [4] [µM]	pEC50 [5]	CC50 at 96 h [6] [µM]	pEC50 (Yellow fever virus)	pEC50 (Coxsackievirus B5)	pEC50 [8]	CC50 [9] [µM]	pEC50 (Vaccinia virus)	pEC50 [10]	Ratio CC50/EC50 [13]	Ratio CC50/EC50 [18]	also measured
Cc1cc(-n2nc3ccccc3n2)cc(C)c1OC(C)(C)C(=O)O	< 4.00	≥ 100	< 4.00	> 100	< 4.00	> 100	< 4.00	< 4.00	< 4.00	> 100	< 4.00	< 4.00	–	–	pEC50 [3]: 6.32; pEC50 [7]: 7.02
CC(C)(COc1ccc(-n2nc3ccccc3n2)cc1)C(=O)O	< 4.00	70	4.60	> 100	4.36	> 100	< 4.00	< 4.00	< 4.00	> 100	< 4.00	< 4.00	>2.27	–	Activity [11]: inactive; Activity [12]: inactive; Ratio CC50/EC50 [14]: 2.8
Clc1ccc2c(c1)nc(Cn1nnc3ccccc31)n2CC[C@@H]1CCCN2CCCC[C@H]12	–	–	–	–	–	–	–	–	–	–	–	–	–	–	pEC50 [15]: 7.70
Oc1ccc2nn[nH]c2c1/N=N/c1ccc(Cl)cc1	–	–	–	–	–	–	–	–	–	–	–	–	–	–	EC75 (Influenza B virus): 4.3 µM
COc1ccc(-n2nc3ccc(C(F)(F)F)cc3n2)cc1	4.40	> 100	< 4.00	> 100	< 4.00	> 100	< 4.00	4.10	< 4.00	> 100	< 4.00	< 4.00	–	>1.25	Ratio CC50/EC50 [16]: >2.5; pEC50 [17]: < 4.00; pEC50 (Human alphaherpesvirus 1): < 4.00
CC(=O)Nc1ccc(-n2nnc3ccc(C(F)(F)F)cc32)cc1	–	–	–	–	–	–	–	–	–	–	–	–	–	–	pEC50 (Poliovirus 1 [19]): 4.52
O=c1[nH]c2cc(S(=O)(=O)n3nnc4cc(Cl)ccc43)ccc2o1	–	–	–	–	–	–	–	–	–	–	–	–	–	–	inhibition at 170 µM (Semliki Forest virus): 99%
Oc1ccc(-n2nc3ccc(C(F)(F)F)cc3n2)cc1	4.10	> 100	5.00	65	4.52	≥ 100	4.77	< 4.00	< 4.00	47	< 4.00	< 4.00	1.57	–	Ratio CC50/EC50 [16]: >1.25; Ratio CC50/EC50 [20]: 3.82; pEC50 (dengue virus type 2): 4.77; Ratio CC50/EC50 [21]: 3.82; pEC50 [17]: < 4.00; pEC50 (Human alphaherpesvirus 1): < 4.00; pEC50 (West Nile virus): < 4.00; Ratio CC50/EC50 [14]: >10
OCC1OC(n2nnc3cc(Cl)c(Cl)cc32)C(O)C1O (configuration not stated)	–	–	–	–	–	–	–	–	–	–	–	–	–	–	pIC50 [22]: 5.82; EC75 (Influenza B virus): 750 µM
C[C@@]1(O)[C@H](O)[C@@H](CO)O[C@H]1n1cnc2c(=O)[nH]c(N)nc21 [2'-B-METHYL-GUANOSINE]	< 4.00	> 100	< 4.00	> 60	–	> 100	5.82	4.70	< 4.00	> 100	< 4.00	–	>58.8	>5	pEC50 (dengue virus type 2): 5.92; Ratio CC50/EC50 [21]: >66.7; pEC50 (Human alphaherpesvirus 1): < 4.00; pEC50 (West Nile virus): 6.15
Clc1c(Cl)c(Cl)c2[nH]nnc2c1Cl	–	–	–	–	–	–	–	–	–	–	–	–	–	–	EC75 (Influenza B virus): 3 µM; EC75 (Poliovirus 2): 8.1 µM
O=c1n(Cc2nc3ccccc3n2CCCCO)c2cnccc2n1C1CC1	–	–	–	–	–	–	–	–	–	–	–	–	–	–	pEC50 [15]: 8.00
COc1ccc2nn(-c3ccc(OCC(C)(C)C(=O)O)cc3)nc2c1	< 4.00	65	4.96	100	4.18	≥ 100	< 4.00	4.62	< 4.00	> 100	< 4.00	< 4.00	>1.51	2.71	Activity [11]: inactive; Activity [12]: inactive; Ratio CC50/EC50 [14]: 5.91
CN(C)c1cccc(C(=O)OCCn2nc3ccccc3n2)c1	–	> 100	< 4.00	> 100	< 4.00	> 100	< 4.00	< 4.00	< 4.00	> 100	< 4.00	4.25	–	–	selectivity ratio [23]: 1.78
C#C[C@@]1(O)[C@H](O)[C@@H](CO)O[C@H]1n1ccc(N)nc1=O [2'-ETHYNYL-D-CYTIDINE]	4.60	> 100	< 4.00	> 100	–	> 100	< 4.00	4.52	< 4.00	> 100	< 4.00	–	>2.6	>3.3	Ratio CC50/EC50 [16]: >4; pEC50 [17]: < 4.00; pEC50 (Human alphaherpesvirus 1): < 4.00
CCC(=O)Nc1ccc(-n2nc3cc(C)c(C)cc3n2)cc1	–	–	–	–	–	–	–	–	–	–	–	–	–	–	pEC50 (Coxsackievirus B2): 5.00
Oc1ccc(-n2nc3cc(Cl)c(Cl)cc3n2)cc1	< 4.00	50	5.10	28	4.85	47	5.22	4.60	< 4.00	37	< 4.00	< 4.00	2.64	2	Ratio CC50/EC50 [20]: 3.5; pEC50 (dengue virus type 2): 5.10; Ratio CC50/EC50 [21]: 4.67; pEC50 [17]: < 4.00; pEC50 (Human alphaherpesvirus 1): < 4.00; Ratio CC50/EC50 [24]: 2.15; pEC50 (West Nile virus): 4.89; Ratio CC50/EC50 [14]: 6.25
Cc1cc(CCCOc2c(C)cc(-c3noc(C(F)(F)F)n3)cc2C)on1 [PLECONARIL]	5.70	70	–	–	–	–	–	8.10	–	–	–	–	–	–	Ratio CC50/EC50 [16]: 35; Ratio CC50/EC50 [21]: 8750
CCCn1nc2c(Br)c(Br)c(Br)c(Br)c2n1	–	–	–	–	–	–	–	–	–	–	–	–	–	–	pIC50 [22]: 5.24
CC(C)(CCCOc1ccc(-n2nc3ccccc3n2)cc1)C(=O)O	< 4.00	25	5.30	31	4.57	47	< 4.00	5.40	< 4.00	61	< 4.00	< 4.00	2.26	6.25	Activity [11]: inactive; Activity [12]: inactive; Ratio CC50/EC50 [14]: 5

— ChEMBL document CHEMBL3734667 (Bioorg Med Chem, 2015)
